Data on 3 molecules can be found in article PMC7375007 (Journal of clinical pharmacology, 2019).

SMILES strings stand for the structures. Like-named read-outs stand apart in the source and are kept apart here.

For data set [1] the following is noted: for Patients within or below the mycophenolic acid AUC0–12h target range: patients with mild gastrointestinal adverse effects (score 1–2); for Cmax / Tmax / AUC(0-t) / AUC / concentration at 12 h / clearance: human, plasma, oral; for AUC: Mycophenolic acid AUC6–12h, estimate of enterohepatic recirculation; for concentration at 12 h: Mycophenolic acid CP(12h); for clearance: Mycophenolic acid clearance; for Mycophenolic acid dose-normalized AUC0–12h: normalized to 1-mg mycophenolic acid dose equivalent.

A short description of data set [2]: Enterohepatic circulation of mycophenolic acid. The following applies: all patients. In kind it is in vivo, human (stable renal transplant recipients).
The nature of data set [3]: Gastrointestinal adverse effect evaluation. As to conditions: patients with score > 0. It counts as in vivo, human (stable renal transplant recipients).
Data set [4] is described as follows: Tacrolimus whole-blood trough concentration. It counts as in vivo, human (stable renal transplant recipients). As to conditions: human, oral.
For data set [5] the following is noted: tacrolimus- and mycophenolic acid-treated patients; ELITE-SYMPHONY study; cited from earlier work.
[6] abbreviates: with tacrolimus and enteric-coated mycophenolate sodium, female (n = 29), steady state.
[7] abbreviates: with tacrolimus and enteric-coated mycophenolate sodium, male (n = 38), steady state.
[8] abbreviates: on tacrolimus and enteric-coated mycophenolate sodium.

`COc1c(C)c2c(c(O[C@@H]3O[C@H](C(=O)O)[C@@H](O)[C@H](O)[C@H]3O)c1C/C=C(\C)CCC(=O)O)C(=O)OC2` [Mycophenolic acid glucuronide]: in data set [1] (tacrolimus group), the “Mycophenolic acid glucuronide AUC0–12h, fold higher in women than men” value is recorded as 1.37 fold. Further, in data set [1] (setting [6]), the “Mycophenolic acid glucuronide AUC0–12h” value was found to be 1068 ± 557 mg·h/L, the “Mycophenolic acid glucuronide CP(12h)” value is 75.1 ± 45.2 mg/L, the “Mycophenolic acid glucuronide Cmax” value stood at 126000 ± 60000 ng/mL and the “Mycophenolic acid glucuronide tmax” value was 3.68 ± 2.45 h. Moreover, in data set [1] (setting [7]), the “Mycophenolic acid glucuronide AUC0–12h” value was 780 ± 336 mg·h/L, the “Mycophenolic acid glucuronide CP(12h)” value was found to be 54.5 ± 28.0 mg/L, the “Mycophenolic acid glucuronide Cmax” value stood at 96700 ± 47700 ng/mL and the “Mycophenolic acid glucuronide tmax” value was determined as 3.89 ± 1.76 h.
Consider `COc1c(C)c2c(c(O)c1C/C=C(\C)CCC(=O)O)C(=O)OC2` [Mycophenolic acid], for which the “Enterohepatic circulation, frequency” value in data set [2] (with cyclosporine) is 45%; in data set [2] (with tacrolimus), 78%; in data set [2] (with tacrolimus, listed as mycophenolic acid) it was “More than 75%”. Also, the entries for the “Gastrointestinal adverse effect score” value in data set [3] (mycophenolic acid AUC0–12h < 30 mg·h/L (n = 22)), in data set [3] (mycophenolic acid AUC0–12h > 60 mg h/L (n = 34)) and in data set [3] (mycophenolic acid AUC0–12h within 30–60 mg·h/L (n = 54)) were 1.7 ± 0.8, 3.0 ± 1.7 and 2.2 ± 1.1, respectively. The “Patients within or below the mycophenolic acid AUC0–12h target range of 30–60 mg·h/L” value in data set [1] (cyclosporine and mycophenolate mofetil, patients with no gastrointestinal adverse effects) stood at 87%. Moreover, the “Patients within or below the mycophenolic acid AUC0–12h target range” value worked out at 88.5% in data set [1] (cyclosporine) and 53.8% in data set [1] (tacrolimus). In addition, the Cmax (as a rule, the highest concentration seen after dosing) in data set [1] (female, 546 mg) came out at 21700 ± 10600 ng/mL; in data set [1] (female, 591 mg), 6490 ± 2300 ng/mL; in data set [1] (male, 587 mg) it was 19600 ± 11200 ng/mL; in data set [1] (male, 715 mg) it was 10300 ± 6500 ng/mL. Moreover, the Tmax (commonly the time at which the peak concentration occurs) in data set [1] (female, 546 mg) is 3.16 ± 2.57 h; in data set [1] (female, 591 mg), 2.07 ± 0.11 h; in data set [1] (male, 587 mg), 2.88 ± 2.06 h; in data set [1] (male, 715 mg) it was 1.92 ± 1.2 h. In addition, the AUC(0-t) (as a rule, exposure summed from dosing to a finite time, without extrapolation to infinity) in data set [1] (female, Mycophenolic acid AUC0–12h, with cyclosporine and mycophenolate mofetil, female (n = 14), steady state) was determined as 40100 ± 13800 ng·h/mL; in data set [1] (female, Mycophenolic acid AUC0–12h, with tacrolimus and enteric-coated mycophenolate sodium, female (n = 29), steady state), 73400 ± 31200 ng·h/mL; in data set [1] (male), 65500 ± 30600 ng·h/mL; in data set [1] (male, Mycophenolic acid AUC0–12h, with cyclosporine and mycophenolate mofetil, male (n = 66), steady state), 41000 ± 18400 ng·h/mL. The AUC (usually the area under the concentration-time curve, a measure of exposure) in data set [1] (female, with cyclosporine and mycophenolate mofetil, female (n = 14)) was 15400 ± 5510 ng·h/mL; in data set [1] (female, with tacrolimus and enteric-coated mycophenolate sodium, female (n = 29)) it was 29300 ± 24000 ng·h/mL; in data set [1] (male, with cyclosporine and mycophenolate mofetil, male (n = 66)) it was 12600 ± 7400 ng·h/mL; in data set [1] (male, with tacrolimus and enteric-coated mycophenolate sodium, male (n = 38)) it was 23800 ± 13400 ng·h/mL. Further, the concentration at 12 h in data set [1] (female, with cyclosporine and mycophenolate mofetil, female (n = 14), steady state) came to 2200 ± 1000 ng/mL; in data set [1] (female, with tacrolimus and enteric-coated mycophenolate sodium, female (n = 29), steady state) it was 4300 ± 2300 ng/mL; in data set [1] (male, with cyclosporine and mycophenolate mofetil, male (n = 66), steady state) it was 2100 ± 1500 ng/mL; in data set [1] (male, with tacrolimus and enteric-coated mycophenolate sodium, male (n = 38), steady state) it was 3900 ± 2200 ng/mL. Moreover, the clearance was 162 mL/min in data set [1] (female, African American women receiving tacrolimus); 342 mL/min in data set [1] (with cyclosporine, all patients); 177 mL/min in data set [1] (with tacrolimus, all patients). For the same molecule, the “Patients within the target mycophenolic acid AUC0–12h range of 30–60 mg h/L” value in data set [1] (men receiving cyclosporine and mycophenolate mofetil) is given as 54.5%; in data set [1] (women receiving cyclosporine and mycophenolate mofetil), 64.3%. Moreover, the “Patients exceeding the target mycophenolic acid AUC0–12h range of 30–60 mg h/L” value amounted to 50% in data set [1] (men receiving tacrolimus and enteric-coated mycophenolate sodium); 65.5% in data set [1] (women receiving tacrolimus and enteric-coated mycophenolate sodium). Further, the “Patients achieving target mycophenolic acid AUC0–12h of 30–60 mg·h/L” value in data set [1] (on cyclosporine and mycophenolate mofetil) was found to be 56.3%; in data set [1] (setting [8]) it was 34.3%. The “Patients above the mycophenolic acid AUC0–12h target of 60 mg·h/L” value in data set [1] (setting [8]) is reported as 56.7%. Moreover, the “Patients exceeding the mycophenolic acid AUC0–12h target range” value in data set [1] (tacrolimus and enteric-coated mycophenolate sodium, moderate to severe gastrointestinal adverse effects (score ≥ 3)) is 50%. Also, the “Patients above the mycophenolic acid AUC0–12h target range” value in data set [1] (tacrolimus and enteric-coated mycophenolate sodium, patients with no gastrointestinal adverse effects) was determined as 78.6%. For the same molecule, the “Lymphopenic patients with mycophenolic acid AUC0–12h > 60 mg·h/L” value in data set [1] (tacrolimus-based regimen (22 of 35)) stood at 62.9%. Also, the “Mycophenolic acid dose-normalized AUC0–12h” value stood at 0.066 ± 0.015 mg·h/L/mg in data set [1] (with cyclosporine and mycophenolate mofetil, female (n = 14)); 0.058 ± 0.032 mg·h/L/mg in data set [1] (with cyclosporine and mycophenolate mofetil, male (n = 66)); 0.127 ± 0.053 mg·h/L/mg in data set [1] (with tacrolimus and enteric-coated mycophenolate sodium, female (n = 29)); 0.103 ± 0.045 mg·h/L/mg in data set [1] (with tacrolimus and enteric-coated mycophenolate sodium, male (n = 38)).
Regarding `C=CC[C@@H]1/C=C(\C)C[C@H](C)C[C@H](OC)[C@H]2O[C@@](O)(C(=O)C(=O)N3CCCC[C@H]3C(=O)O[C@H](/C(C)=C/[C@@H]3CC[C@@H](O)[C@H](OC)C3)[C@H](C)[C@@H](O)CC1=O)[C@H](C)C[C@@H]2OC` [Tacrolimus], the concentration at 0 h in data set [4] (female) turned out to be 7.1 ± 1.9 ng/mL; in data set [4] (male), 7.3 ± 2 ng/mL. Moreover, the Diarrhea in data set [5] was 25.3%.
